What was measured:
Format in all cases: in vivo
[1] = test system: Maize; assay: Pre-emergence test/Greenhouse, Maize; settings: in vivo
Method: (§1) To produce a suitable preparation of the active compound, 1 part by weight of active compound is mixed with the stated amount of solvent, the stated amount of emulsifier is added and the concentrate is diluted with water to the desired concentration.
(§2) Seeds of the test plants are sown in normal soil. After about 24 hours, the soil is watered with the preparation of active compound. Advantageously, the amount of water per unit area is kept constant. The active compound concentration in the preparation is not important, only the active compound appliation rate per unit area matters.
(§3) After three weeks, the degree of damage to the plants is rated in % damage in comparison to the development of the untreated control.
(§4) 0%=no action (like untreated control)

[2] = test system: Lolium; assay: Pre-emergence test/Greenhouse, Lolium; settings: after three weeks
Method: as §1, §2, §3, §4

[3] = test system: Soya beans; assay: Pre-emergence test/Greenhouse, Soya beans; settings: in vivo
Method: as §1, §2, §3, §4

[4] = test system: Poa; assay: Pre-emergence test/Greenhouse, Poa; settings: after three weeks
Method: as §1, §2, §3, §4

[5] = test system: Ambrosia; assay: Pre-emergence test/Greenhouse, Ambrosia; settings: after three weeks
Method: as §1, §2, §3, §4

[6] = test system: Solanum; assay: Pre-emergence test/Greenhouse, Solanum; settings: after three weeks
Method: as §1, §2, §3, §4

[7] = test system: weeds; assay: Pre-emergence test (greenhouse), activity against weeds; settings: in words
Method: Solvent: 5 parts by weight of acetone
Emulsifier: 1 part by weight of alkylaryl polyglycol ether
as §1, §2, §3, §4

[8] = test system: Matricaria; assay: Pre-emergence test/Greenhouse, Matricaria; settings: after three weeks
Method: as §1, §2, §3, §4

Row | Compound | degree of damage to the plants (% damage vs untreated control), Maize [1] [%] | degree of damage to the plants (% damage vs untreated control), Lolium ([2]; 60 g of ai./ha) [%] | degree of damage to the plants (% damage vs untreated control), Soya beans [3] [%] | degree of damage to the plants (% damage vs untreated control), Poa ([4]; 60 g of ai./ha) [%] | degree of damage to the plants (% damage vs untreated control), Ambrosia ([5]; 60 g of ai./ha) [%] | degree of damage to the plants (% damage vs untreated control), Solanum ([6]; 60 g of ai./ha) [%] | activity against weeds [7] | degree of damage to the plants (% damage vs untreated control), Matricaria ([8]; 60 g of ai./ha) [%] | degree of damage to the plants (% damage vs untreated control), Lolium ([2]; 125 g of ai./ha) [%] | degree of damage to the plants (% damage vs untreated control), Poa ([4]; 125 g of ai./ha) [%] | degree of damage to the plants (% damage vs untreated control), Ambrosia ([5]; 125 g of ai./ha) [%] | degree of damage to the plants (% damage vs untreated control), Solanum ([6]; 125 g of ai./ha) [%] | degree of damage to the plants (% damage vs untreated control), Matricaria ([8]; 125 g of ai./ha) [%] | degree of damage to the plants (% damage vs untreated control), Lolium ([2]; 15 g of ai./ha) [%] | degree of damage to the plants (% damage vs untreated control), Poa ([4]; 15 g of ai./ha) [%] | degree of damage to the plants (% damage vs untreated control), Ambrosia ([5]; 15 g of ai./ha) [%] | degree of damage to the plants (% damage vs untreated control), Solanum ([6]; 15 g of ai./ha) [%] | degree of damage to the plants (% damage vs untreated control), Matricaria ([8]; 15 g of ai./ha) [%]
1 | COC(=O)c1scc(C)c1S(=O)(=O)NC(=O)n1nc(OC(C)C)n(C)c1=O [Example 40] | 10 | 90 | 30 | 95 | 95 | 95 | very strong activity against weeds | 95 |  |  |  |  |  |  |  |  |  | 
2 | CCOn1c(SC)nn(C(=O)NS(=O)(=O)c2c(C)cccc2C(=O)OC)c1=O [Example 146] | 0 | 80 | 10 | 90 | 80 | 90 | very strong activity against weeds | 80 |  |  |  |  |  |  |  |  |  | 
3 | CCSc1nn(C(=O)NS(=O)(=O)c2c(C)cccc2C(=O)OC(C)C)c(=O)n1C [Example 42] | 10 | 95 | 10 | 95 | 95 | 95 | very strong activity against weeds | 95 |  |  |  |  |  |  |  |  |  | 
4 | CCCOC(=O)c1cccc(C)c1S(=O)(=O)NC(=O)n1nc(OCC)n(CC)c1=O [Example 45] | 10 |  | 20 |  |  |  | very strong activity against weeds |  | 90 | 95 | 95 | 95 | 90 |  |  |  |  | 
5 | CCn1c(OC)nn(C(=O)NS(=O)(=O)c2c(C)csc2C(=O)OC)c1=O [Example 37] | 10 | 90 | 10 | 70 | 80 | 90 | very strong activity against weeds | 95 |  |  |  |  |  |  |  |  |  | 
6 | CCCOC(=O)c1cccc(C)c1S(=O)(=O)NC(=O)n1nc(SCC)n(C)c1=O [Example 48] | 30 |  | 20 |  |  |  | very strong activity against weeds |  | 95 | 95 | 95 | 95 | 100 |  |  |  |  | 
7 | CCCc1nn(C(=O)NS(=O)(=O)c2c(C)csc2C(=O)OC)c(=O)n1OC [Example 39] | 0 | 95 | 20 | 90 | 95 | 90 | very strong activity against weeds | 70 |  |  |  |  |  |  |  |  |  | 
8 | CCOC(=O)c1scc(C)c1S(=O)(=O)NC(=O)n1nc(OCC)n(CC)c1=O [Example 64] | 10 | 90 | 30 | 60 | 100 | 100 | very strong activity against weeds | 100 |  |  |  |  |  |  |  |  |  | 
9 | C#CCSc1nn(C(=O)NS(=O)(=O)c2c(C)cccc2C(=O)OC)c(=O)n1C [Example 161] | 0 | 95 | 20 | 95 | 95 | 95 | very strong activity against weeds | 95 |  |  |  |  |  |  |  |  |  | 
10 | C=CCOc1nn(C(=O)NS(=O)(=O)c2c(C)cccc2C(=O)OC)c(=O)n1C1CC1 [Example 147] | 30 |  | 0 |  |  |  | very strong activity against weeds |  |  |  |  |  |  | 95 | 90 | 70 | 80 | 70
11 | CCn1c(OC)nn(C(=O)NS(=O)(=O)c2c(C)cccc2C(=O)OC(C)C)c1=O [Example 19] | 0 | 95 | 0 | 95 | 95 | 90 | very strong activity against weeds | 95 |  |  |  |  |  |  |  |  |  | 

Source: US6441195B1, “Substituted sulphonylamino(thio) carbonyl compounds” (Bayer Aktiengesellschaft, priority 1995, dated 2002)
